Reference: US12263248B2, “Compounds and compositions for intracellular delivery of therapeutic agents” (ModernaTX, Inc., priority 2018, dated 2025)

Key:
IL-6, IP-10 = assay: Cytokine induction in mice upon intravenous administration; type: in vivo; set-up: Cytokine induction IL-6 / Cytokine induction IP-10: unit not given here; details: 0.5 mpk, 6 hours; for Cytokine induction IL-6 / Cytokine induction IP-10: intravenous
Summary of the method: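 Mice dosed intravenously with nanoparticle compositions at 0.5 mpk; serum cytokine concentrations (IL-6, IP-10) measured at 6 hours. MC3 formulation and PBS controls run alongside.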

[1] = Apparent (surface) pKa of the LNP formulation (TNS assay); type: physicochemical; details: for surface pKa: LNP, Example 26
Summary of the method: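 LNP (0.04 mg/mL mRNA) mixed with TNS reagent in 21 buffers spanning about pH 3-12, in triplicate; fluorescence plotted against pH as sigmoidal curve. Apparent pKa taken as […] curve inflection point; validated in 1× PBS and 20 mM Tris w/8% sucrose.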

luciferase (Luc) mRNA = assay: Luc expression, whole body bioluminescence after intravenous administration to mice; type: in vivo; details: for Fold increase in total body Luc Flux relative to MC3 at 6 h: Table 3A; for Total Flux 3 hours / Total Flux 6 hours / Total Flux 24 hours: Luc mRNA
Summary of the method: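 Luc mRNA nanoparticle formulations given intravenously to mice (n=6) at 0.5 mg/kg; whole-body bioluminescence imaged at 3, 6 and 24 h. CD-1 mice received IP D-luciferin (200 μL of 15 mg/mL) 15 min before imaging; total flux quantified by region of interest.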

[2] = Particle size and polydispersity index of nanoparticle compositions (Zetasizer Nano ZS); type: physicochemical
Summary of the method: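 Particle size and PDI were measured on a Zetasizer Nano ZS with the nanoparticle compositions dispersed in 1×PBS.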

[3] = Encapsulation efficiency of RNA (QUANT-IT RIBOGREEN RNA assay); type: physicochemical; details: for % Encapsulation: lipid nanoparticle, ±SD within one assay run (Table 37)
Summary of the method: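 RiboGreen fluorescence (ex ~480, em ~520 nm) compared between intact samples and Triton X-100-lysed samples after 15 min at 37 °C in TE buffer, pH 7.5. Percent free RNA is the blank-corrected intact/disrupted ratio.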

[4] = Table 1A, lipid:DSPC:cholesterol:PEG-DMG 50:10:38.5:1.5 mol %
[5] = Table 1B, formulated with hEPO mRNA
[6] = lipid nanoparticle, ±SD within one assay run (Table 37)
[7] = Table 1C, compositions for subcutaneous administration
[8] = Table 1D, for subcutaneous administration, # formulated with hEPO mRNA
[9] = Table 1E, compositions for subcutaneous administration
[10] = lipid:DSPC:Chol:PEG-DMG (50:10:38.5:1.5), hEPO mRNA
[11] = nanoparticle composition with hEPO mRNA (Table 30)

CCCCCCCCCN(CCO)CCCCCCCC(=O)OC(CCCCCCCC)CCCCCCCC [Compound 3, Heptadecan-9-yl 8-((2-hydroxyethyl)(nonyl)amino)octanoate]
IL-6 induction (IL-6, IP-10; i.v., in words): highest | IP-10 induction (IL-6, IP-10; i.v., in words): highest | Cytokine induction IL-6 (IL-6, IP-10): 282.88 | Cytokine induction IP-10 (IL-6, IP-10): 2052.87 | pKa ([1]; Table 1A): 6.72 | pKa ([1]; Table 6): 6.72 | Fold increase in total body Luc Flux relative to MC3 at 6 h (luciferase (Luc) mRNA; i.v. administration): 2.24 | Fold increase in Luc expression relative to MC3, Intravenous (0.5 mpk dose) (luciferase (Luc) mRNA; intravenous): 2.24 | Total Flux 3 hours (luciferase (Luc) mRNA; mice, i.v., 0.5 mg/kg): 6.55E+10 | Total Flux 6 hours (luciferase (Luc) mRNA; mice, i.v., 0.5 mg/kg): 7.37E+10 | Total Flux 24 hours (luciferase (Luc) mRNA; mice, i.v., 0.5 mg/kg): 4.96E+09 | PDI ([2]; Table 1A): 0.20 | Size (nm) [2, 4]: 97.5 nm | EE (%) ([3]; Table 1A): 92.25%

CCCCCCCC/C=C\COC(=O)CCCCCN(CCO)CCCCCC(=O)OC/C=C\CCCCCCCC [Compound 140, Di((Z)-undec-2-en-1-yl) 6,6′-((2-hydroxyethyl)azanediyl)dihexanoate]
Cytokine induction IL-6 (IL-6, IP-10): 282.82 | Cytokine induction IP-10 (IL-6, IP-10): 187.83 | pKa ([1]; Table 1A): 7.71 | Total Flux 3 hours (luciferase (Luc) mRNA; mice, i.v., 0.5 mg/kg): 3.74E+06 | Total Flux 6 hours (luciferase (Luc) mRNA; mice, i.v., 0.5 mg/kg): 1.70E+06 | Total Flux 24 hours (luciferase (Luc) mRNA; mice, i.v., 0.5 mg/kg): 5.67E+05 | flux at all timepoints measured (luciferase (Luc) mRNA; mice, i.v., 0.5 mg/kg, 3, 6 and 24 hour, in words): significantly lower flux | PDI ([2]; Table 1A): 0.84 | Size (nm) [2, 4]: 120.3 nm | EE (%) ([3]; Table 1A): 89.2%

CCCCCCCCCOC(=O)CCCCCCCN(CCO)CCCCCC(=O)OC(CCCCCCCC)CCCCCCCC [Compound 27, Nonyl 8-((6-(heptadecan-9-yloxy)-6-oxohexyl)(2-hydroxyethyl)amino) octanoate]
Cytokine induction IL-6 (IL-6, IP-10): 161.07 | Cytokine induction IP-10 (IL-6, IP-10): 345.56 | pKa ([1]; Table 1A): 6.78 | Fold increase in total body Luc Flux relative to MC3 at 6 h (luciferase (Luc) mRNA; i.v. administration): 0.31 | Total Flux 3 hours (luciferase (Luc) mRNA; mice, i.v., 0.5 mg/kg): 1.64E+10 | Total Flux 6 hours (luciferase (Luc) mRNA; mice, i.v., 0.5 mg/kg): 1.03E+10 | Total Flux 24 hours (luciferase (Luc) mRNA; mice, i.v., 0.5 mg/kg): 1.94E+09 | PDI ([2]; Table 1A): 0.18 | Size (nm) [2, 4]: 82.3 nm | EE (%) ([3]; Table 1A): 94.27%

CCCCCCCCCOC(=O)CCCCCCCN(CCO)CCCCCCC(=O)OCC(CCCCCCCC)CCCCCCCC [Compound 143, Nonyl 8-((2-hydroxyethyl)(7-((2-octyldecyl)oxy)-7-oxoheptyl)amino)octanoate]
Cytokine induction IL-6 (IL-6, IP-10): 6.245 | Cytokine induction IP-10 (IL-6, IP-10): 209.63 | pKa ([1]; Table 1A): 6.47 | Total Flux 3 hours (luciferase (Luc) mRNA; mice, i.v., 0.5 mg/kg): 1.76E+10 | Total Flux 6 hours (luciferase (Luc) mRNA; mice, i.v., 0.5 mg/kg): 2.03E+10 | Total Flux 24 hours (luciferase (Luc) mRNA; mice, i.v., 0.5 mg/kg): 2.47E+08 | PDI ([2]; Table 1A): 0.21 | Size (nm) [2, 4]: 98.8 nm | EE (%) ([3]; Table 1A): 97.37%

CCCCC/C=C\C/C=C\CCCCCCCCC(CCCCCCCC/C=C\C/C=C\CCCCC)OC(=O)CCCN(C)C [MC3, DLin-MC3-DMA, reference compound]
Cytokine induction IL-6 (IL-6, IP-10): 124.42 | Cytokine induction IP-10 (IL-6, IP-10): 504.90 | Apparent pKa [1, 5]: 6.35 | pKa [1, 6]: 6.30 ± 0.03 | Lipid/MC3 Luc expression (luciferase (Luc) mRNA; 0.5 mpk dose to mouse, 6 hours after administration): 1 | Fold increase in total body Luc Flux relative to MC3 at 6 h (luciferase (Luc) mRNA; i.v. administration): 1.00 | 6 h Lipid/MC3 Avg. Luc Expression (luciferase (Luc) mRNA; Table 3C, i.v. administration): 1 | Fold increase AUC Lipid/MC3 (luciferase (Luc) mRNA; Table 3C, i.v. administration): 1 | AUC (h * p/s) (luciferase (Luc) mRNA; Table 3C, i.v. administration, Luc): 8.24E+10 h * p/s | Lipid/MC3 AUC (luciferase (Luc) mRNA; Table 3D, intravenous): 1 | AUC (p/s * h) (luciferase (Luc) mRNA; Table 3D, intravenous, Luc): 1.909E+011 p/s * h | Total Flux 3 hours (luciferase (Luc) mRNA; mice, i.v., 0.5 mg/kg): 1.58E+10 | Total Flux 6 hours (luciferase (Luc) mRNA; mice, i.v., 0.5 mg/kg): 2.12E+10 | Total Flux 24 hours (luciferase (Luc) mRNA; mice, i.v., 0.5 mg/kg): 7.19E+08 | Average total flux (6 h, ffluc) (luciferase (Luc) mRNA; mice, intravenous, 6 h): 6.59 × 10^9 | Fold increase in average total flux relative to MC3 (luciferase (Luc) mRNA; mice, intravenous, 6 h): 1 | PDI ([2]; Table 1A): 0.11 | Size (nm) [2, 4]: 79.7 nm | PDI [2, 5]: 0.12 | Size (nm) [2, 5]: 57.7 nm | PDI [2, 7]: 0.09 | Size (nm) [2, 7]: 56.9 nm | PDI [2, 8]: 0.15 | Size (nm) [2, 8]: 69.1 nm | PDI [2, 9]: 0.10 | Size (nm) [2, 9]: 62.4 nm | PDI (Polydispersity index) [2, 6]: 0.11 ± 0.04 | PDI [2, 10]: 0.114 | PDI [2, 11]: 0.220 | EE (%) ([3]; Table 1A): 97.3% | EE (%) [3, 5]: 99.01% | % EE [3, 7]: 98.2% | % EE [3, 8]: 98.7% | % EE [3, 9]: 98% | % Encapsulation [3]: 97.3 ± 1.9% | EE [3, 10]: 97.22% | EE [3, 11]: 91.66%

CCCCCCCCCOC(=O)CCCCCCCN(CCCCO)CCCCCCCC(=O)OC(CCCCCCCC)CCCCCCCC [Compound 20, Heptadecan-9-yl 8-((4-hydroxybutyl)(8-(nonyloxy)-8-oxooctyl)amino) octanoate]
IP-10 induction (IL-6, IP-10; i.v., in words): highest | Cytokine induction IL-6 (IL-6, IP-10): 126.83 | Cytokine induction IP-10 (IL-6, IP-10): 2468.24 | pKa ([1]; Table 1A): 6.87 | pKa ([1]; Table 6): 6.87 | Fold increase in total body Luc Flux relative to MC3 at 6 h (luciferase (Luc) mRNA; i.v. administration): 0.80 | Fold increase in Luc expression relative to MC3, Intravenous (0.5 mpk dose) (luciferase (Luc) mRNA; intravenous): 0.80 | Total Flux 3 hours (luciferase (Luc) mRNA; mice, i.v., 0.5 mg/kg): 1.71E+10 | Total Flux 6 hours (luciferase (Luc) mRNA; mice, i.v., 0.5 mg/kg): 2.48E+10 | Total Flux 24 hours (luciferase (Luc) mRNA; mice, i.v., 0.5 mg/kg): 5.40E+08 | PDI ([2]; Table 1A): 0.13 | Size (nm) [2, 4]: 86.7 nm | PDI [2, 7]: 0.13 | Size (nm) [2, 7]: 86.7 nm | EE (%) ([3]; Table 1A): 96.72% | % EE [3, 7]: 91.6%

CCCCCCCCCOC(=O)CCCCCCCN(CCO)CCCCCCCC(=O)OCCCCCCCCC [Compound 138, Dinonyl 8,8′-((2-hydroxyethyl)azanediyl)dioctanoate]
Cytokine induction IL-6 (IL-6, IP-10): 23.38 | Cytokine induction IP-10 (IL-6, IP-10): 172.56 | surface pKa [1]: > 7 | pKa ([1]; Table 1A): 7.39 | pKa [1, 6]: 7.39 ± 0.07 | Total Flux 3 hours (luciferase (Luc) mRNA; mice, i.v., 0.5 mg/kg): 2.97E+07 | Total Flux 6 hours (luciferase (Luc) mRNA; mice, i.v., 0.5 mg/kg): 2.30E+07 | Total Flux 24 hours (luciferase (Luc) mRNA; mice, i.v., 0.5 mg/kg): 1.63E+06 | PDI ([2]; Table 1A): <0.5 | Size (nm) [2, 4]: 179.4 nm | PDI (Polydispersity index) [2, 6]: 0.14 ± 0.05 | EE (%) ([3]; Table 1A): 91.8% | % Encapsulation [3]: 91.8 ± 0.9%

CCCCCCCCC(CCCCCCCC)OC(=O)CCCCCCCN(CCO)CCCCCCCC(=O)OC(CCCCCCCC)CCCCCCCC [Compound 29, Di(heptadecan-9-yl) 8,8′-((2-hydroxyethyl)azanediyl)dioctanoate]
Cytokine induction IL-6 (IL-6, IP-10): 69.54 | Cytokine induction IP-10 (IL-6, IP-10): 1362.81 | surface pKa [1]: 6.00 | pKa ([1]; Table 1A): 6.00 | pKa ([1]; Table 6): 6.00 | pKa [1, 6]: 6.00 ± 0.24 | Fold increase in total body Luc Flux relative to MC3 at 6 h (luciferase (Luc) mRNA; i.v. administration): 0.78 | Fold increase in Luc expression relative to MC3, Intravenous (0.5 mpk dose) (luciferase (Luc) mRNA; intravenous): 1.03 | Total Flux 3 hours (luciferase (Luc) mRNA; mice, i.v., 0.5 mg/kg): 4.61E+09 | Total Flux 6 hours (luciferase (Luc) mRNA; mice, i.v., 0.5 mg/kg): 2.89E+09 | Total Flux 24 hours (luciferase (Luc) mRNA; mice, i.v., 0.5 mg/kg): 3.55E+08 | luciferase activity relative to MC3 LNP control (luciferase (Luc) mRNA; mice, intravenous, 0.5 mg/kg (mRNA dose)): lower luciferase activity | PDI ([2]; Table 1A): 0.11 | Size (nm) [2, 4]: 66.8 nm | PDI (Polydispersity index) [2, 6]: 0.11 ± 0.03 | Size [2, 6]: 66.8 ± 1.1 nm | EE (%) ([3]; Table 1A): 96.99% | % Encapsulation [3]: 97.0 ± 0.6%
